For orientation: IC50 means the point on the concentration scale where inhibition reaches its midpoint. Lower therefore signals inhibition by little substance.

The text below walks through data of BindingDB's records for doi:10.1111/cbdd.12529 (Birla Institute of Technology, 2015).

Assay [1] has as its target T1, DNA gyrase subunit B (Staphylococcus aureus, UniProt P0A0K8). Briefly: Supercoiling Assay. To be noted: pH 7.6; 25 °C. The method, then:
Supercoiling assay was performed using the commercially available kit (DNA gyrase supercoiling assay kit: SAS4001) from Inspiralis Pvt.limited, Norwich, UK. The assay was performed in 1.5 mL eppendorf tubes at room temperature. […] KOH (pH 7.6), 10 mM magnesium acetate, 10 mM DTT, 2 mM ATP, 500 mM potassium glutamate, 0.05 mg/mL albumin (BSA). While the standard compound novobiocin was the positive control, 4% DMSO was considered as negative control. Subsequently, each reaction was stopped by the addition of 30 µL of Stop dye [40% sucrose, 100 mM Tris-HCl (pH 7.5), 1 mM EDTA and 0.5 mg/mL bromophenol blue] (8), briefly centrifuged for 45 sec and was run in 1% agarose gel in 1X TAE buffer (40mM Tris acetate, 2mM EDTA).

In assay [2] the target is T1, DNA gyrase subunit B. As to the kind of experiment: GyraseB Assay. As to conditions: pH 7.5. Here is the method:
Initially, equimolar quantities of about 0.5µM each of E. coli gyraseA and S. aureus gyraseB were incubated for a period of 45 min with salmon sperm DNA (Sigma) in 50mM Tris (pH 7.5), 75mM ammonium acetate buffer for the reconstitution of the hybrid topoisomerases at 4 OC. Later the assay was performed in a 96-well microtiter plate as mentioned earlier (7). […] The reaction was allowed to proceed for 60 min and was quenched by addition of 20uL of malachite green reagent (POMG-25H, Bioassay systems, USA) subsequently absorbance was read at 650nm after 20 mi

T1 sequence (P0A0K8 whole entry): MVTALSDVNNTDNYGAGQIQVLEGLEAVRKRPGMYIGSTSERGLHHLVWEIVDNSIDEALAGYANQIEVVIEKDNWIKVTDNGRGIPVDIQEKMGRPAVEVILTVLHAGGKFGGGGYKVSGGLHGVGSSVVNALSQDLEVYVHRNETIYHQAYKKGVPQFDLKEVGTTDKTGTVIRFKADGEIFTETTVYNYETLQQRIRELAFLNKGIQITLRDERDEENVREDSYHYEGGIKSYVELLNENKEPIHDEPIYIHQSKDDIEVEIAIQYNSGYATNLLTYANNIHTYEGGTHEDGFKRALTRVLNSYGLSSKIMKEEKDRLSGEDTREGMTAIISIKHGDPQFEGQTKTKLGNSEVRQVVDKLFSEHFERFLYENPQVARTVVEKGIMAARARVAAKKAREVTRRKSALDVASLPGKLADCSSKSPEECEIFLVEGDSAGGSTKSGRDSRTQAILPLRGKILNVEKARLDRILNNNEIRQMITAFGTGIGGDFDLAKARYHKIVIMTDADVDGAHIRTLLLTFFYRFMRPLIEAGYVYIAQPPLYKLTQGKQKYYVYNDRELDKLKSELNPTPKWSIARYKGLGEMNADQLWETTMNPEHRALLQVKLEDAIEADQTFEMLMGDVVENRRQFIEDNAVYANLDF

In the case of `O=C(O)CCC(=O)Nc1ccc(NC(=O)c2cccs2)cc1` [4-oxo-4-((4-(thiophene-2-carboxamido)phenyl)amino)butanoate (16)], the IC50 against DNA gyrase subunit B [1] came out at 12.5 µM; on DNA gyrase subunit B [2], 22 µM.

On to `NNC(=O)CCC(=O)Nc1ccc(NC(=O)c2cccs2)cc1` [N-(4-(4-Hydrazinyl-4-oxobutanamido)phenyl)thiophene-2-carboxamide (24)], for which the IC50 came to 28.1 µM against DNA gyrase subunit B [1] and 32.6 µM against DNA gyrase subunit B [2].

With `Cc1ccc(C(=O)Nc2ccc(NC(=O)CCC(=O)O)cc2)s1` [4-(4-(5-methylthiophene-2-carboxamido)phenylamino)-4-oxobutanoate (17)], the values for the 50% inhibitory concentration (IC50) against DNA gyrase subunit B [1] and against DNA gyrase subunit B [2] were 12.5 µM and 24.7 µM, respectively.

On to `Cc1ccc(C(=O)Nc2ccc(NC(=O)CCC(=O)NN)cc2)s1` [N-(4-(4-Hydrazinyl-4-oxobutanamido)phenyl)-5-methylthiophene-2-carboxamide (25)], for which the half-maximal inhibitory concentration (IC50) against DNA gyrase subunit B [1] was 6.12 µM; on DNA gyrase subunit B [2] it was 9.71 µM.

Consider `NNC(=O)CCC(=O)Nc1ccc(NC(=O)c2ccc[nH]2)cc1` [N-(4-(4-Hydrazinyl-4-oxobutanamido)phenyl)-1H-pyrrole-2-carboxamide (27)], for which the figures for the IC50 on DNA gyrase subunit B [1] and against DNA gyrase subunit B [2] were 43.1 µM and 54.9 µM, respectively.

In the case of `O=C(O)CCC(=O)Nc1ccc(NC(=O)c2ccc([N+](=O)[O-])o2)cc1` [4-(4-(5-nitrofuran-2-carboxamido)phenylamino)-4-oxobutanoate (15)], the IC50 worked out at 25.8 µM at DNA gyrase subunit B [1] and 28.9 µM at DNA gyrase subunit B [2].

Take `Cc1ccc(C(=O)Nc2ccc(NC(=O)CCC(=O)O)cc2)o1` [4-(4-(5-methylfuran-2-carboxamido)phenylamino)-4-oxobutanoate (14)]: the IC50 on DNA gyrase subunit B [1] stood at 6.12 µM; at DNA gyrase subunit B [2], 10.3 µM.

`O=C(O)CCC(=O)Nc1ccc(NC(=O)c2ccco2)cc1` [4-((4-(furan-2-carboxamido)phenyl)amino)-4-oxobutanoic acid (5)] showed an IC50 on DNA gyrase subunit B [1] of 3.12 µM.

As for `O=C(O)CCC(=O)Nc1ccc(NC(=O)c2ccc[nH]2)cc1` [4-(4-(1H-pyrrole-2-carboxamido)phenylamino)-4-oxobutanoate (19)], the IC50 against DNA gyrase subunit B [1] stood at 13.7 µM; against DNA gyrase subunit B [2] it was 42.4 µM.

Regarding `Cc1ccc(C(=O)Nc2ccc(NC(=O)CCC(=O)NN)cc2)o1` [N-(4-(4-Hydrazinyl-4-oxobutanamido)phenyl)-5-methylfuran-2-carboxamide (22)], the IC50 worked out at 2.79 µM against DNA gyrase subunit B [1] and 5.35 µM on DNA gyrase subunit B [2].

As for `O=C(O)CCC(=O)Nc1ccc(NC(=O)C2CCCO2)cc1` (stereo not drawn) [4-oxo-4-(4-(tetrahydrofuran-2-carboxamido)phenylamino)butanoate (20)], the IC50 at DNA gyrase subunit B [1] amounted to 6.12 µM; against DNA gyrase subunit B [2], 11.7 µM.

For `O=C(O)CCC(=O)Nc1ccc(NC(=O)c2ccc([N+](=O)[O-])s2)cc1` [4-((4-(5-nitrothiophene-2-carboxamido)phenyl)amino)-4-oxobutanoic acid (10)], the 50% inhibitory concentration (IC50) is 6.12 µM on DNA gyrase subunit B [1] and 12.5 µM against DNA gyrase subunit B [2].

In the case of `NNC(=O)CCC(=O)Nc1ccc(NC(=O)C2CCCO2)cc1` (stereo not drawn) [N-(4-(4-Hydrazinyl-4-oxobutanamido)phenyl)tetrahydrofuran-2-carboxamide (28)], the values for the IC50 at DNA gyrase subunit B [1] and against DNA gyrase subunit B [2] were 23.1 µM and 41.2 µM, respectively.

Consider `NNC(=O)CCC(=O)Nc1ccc(NC(=O)c2ccco2)cc1` [N-(4-(4-Hydrazinyl-4-oxobutanamido)phenyl)furan-2-carboxamide (21)], for which the IC50 at DNA gyrase subunit B [1] was determined as 23.9 µM; against DNA gyrase subunit B [2], 39.4 µM.

Turning to `NNC(=O)CCC(=O)Nc1ccc(NC(=O)c2ccc([N+](=O)[O-])s2)cc1` [N-(4-(4-Hydrazinyl-4-oxobutanamido)phenyl)-5-nitrothiophene-2-carboxamide (26)], the concentration for half-maximal inhibition (IC50) at DNA gyrase subunit B [1] was 19.3 µM; on DNA gyrase subunit B [2], 26.4 µM.

Regarding `O=C(O)CCC(=O)Nc1ccc(NC(=O)c2ccc([N+](=O)[O-])s2)cc1` [4-(4-(5-nitrothiophene-2-carboxamido)phenylamino)-4-oxobutanoate (18)], the IC50 at DNA gyrase subunit B [1] was 26.8 µM; against DNA gyrase subunit B [2] it was 29.5 µM.

Consider `NNC(=O)CCC(=O)Nc1ccc(NC(=O)c2ccc([N+](=O)[O-])o2)cc1` [N-(4-(4-Hydrazinyl-4-oxobutanamido)phenyl)-5-nitrofuran-2-carboxamide (23)], for which the IC50 amounted to 25.1 µM against DNA gyrase subunit B [1] and 35.5 µM on DNA gyrase subunit B [2].
